Assay results: patent US20250064941A1, “SIGLEC LIGANDS, CONJUGATES, AND METHODS OF USE THEREOF” (Osprey Biopharmaceuticals, Inc., priority 2023, published 2025)

Columns and labels:
[1] = target: T1, human Siglec-2/CD22 protein (Homo sapiens, UniProt P20273); assay: SPR binding affinity to human CD22; conditions: steady-state analysis
T1 construct: purchased Acro Biosystems SI2-H82E3
T1 sequence (P20273 20-847): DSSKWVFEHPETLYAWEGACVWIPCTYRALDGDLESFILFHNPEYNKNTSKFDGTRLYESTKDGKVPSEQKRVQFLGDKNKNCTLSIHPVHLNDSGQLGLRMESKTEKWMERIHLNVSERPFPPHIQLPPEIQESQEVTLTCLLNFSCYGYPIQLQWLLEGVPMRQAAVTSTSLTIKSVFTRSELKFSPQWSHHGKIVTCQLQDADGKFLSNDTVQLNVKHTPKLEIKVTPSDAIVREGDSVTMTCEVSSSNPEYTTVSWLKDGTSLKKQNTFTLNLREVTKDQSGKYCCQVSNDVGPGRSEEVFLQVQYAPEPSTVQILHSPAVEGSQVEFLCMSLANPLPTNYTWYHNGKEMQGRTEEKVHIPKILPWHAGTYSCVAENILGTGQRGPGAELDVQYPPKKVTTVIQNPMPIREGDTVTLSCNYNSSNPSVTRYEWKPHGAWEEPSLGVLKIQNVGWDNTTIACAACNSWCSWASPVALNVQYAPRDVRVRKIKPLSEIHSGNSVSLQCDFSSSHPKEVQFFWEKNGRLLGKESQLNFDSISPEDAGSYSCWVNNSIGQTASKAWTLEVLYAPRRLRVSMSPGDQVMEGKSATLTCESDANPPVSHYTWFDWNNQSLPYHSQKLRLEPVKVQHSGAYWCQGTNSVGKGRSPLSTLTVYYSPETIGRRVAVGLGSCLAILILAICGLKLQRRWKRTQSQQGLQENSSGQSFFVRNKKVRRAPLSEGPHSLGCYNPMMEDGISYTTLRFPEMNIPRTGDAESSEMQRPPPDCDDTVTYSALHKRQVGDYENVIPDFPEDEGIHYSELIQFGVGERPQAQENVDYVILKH
Method in brief: (§1)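 Biotinylated CD22 desialylated with SialoExo (4 h, 37° C) before capture on streptavidin chip. Running buffer 10 mM HEPES, 150 mM NaCl, 0.05% Tween-20, pH 7.5, 1% DMSO, with DMSO solvent correction; 120 s dissociation. Compound affinities from steady-state analysis.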

cynomolgus Siglec-2/CD22 = cynomolgus Siglec-2/CD22 (Macaca fascicularis, UniProt A0A2K5WCZ6); assay: biochemical; format: binding; conditions: SPR, steady-state analysis; read-out: Affinity cyno CD22
cynomolgus Siglec-2/CD22, sequence (A0A2K5WCZ6 entry or part of it): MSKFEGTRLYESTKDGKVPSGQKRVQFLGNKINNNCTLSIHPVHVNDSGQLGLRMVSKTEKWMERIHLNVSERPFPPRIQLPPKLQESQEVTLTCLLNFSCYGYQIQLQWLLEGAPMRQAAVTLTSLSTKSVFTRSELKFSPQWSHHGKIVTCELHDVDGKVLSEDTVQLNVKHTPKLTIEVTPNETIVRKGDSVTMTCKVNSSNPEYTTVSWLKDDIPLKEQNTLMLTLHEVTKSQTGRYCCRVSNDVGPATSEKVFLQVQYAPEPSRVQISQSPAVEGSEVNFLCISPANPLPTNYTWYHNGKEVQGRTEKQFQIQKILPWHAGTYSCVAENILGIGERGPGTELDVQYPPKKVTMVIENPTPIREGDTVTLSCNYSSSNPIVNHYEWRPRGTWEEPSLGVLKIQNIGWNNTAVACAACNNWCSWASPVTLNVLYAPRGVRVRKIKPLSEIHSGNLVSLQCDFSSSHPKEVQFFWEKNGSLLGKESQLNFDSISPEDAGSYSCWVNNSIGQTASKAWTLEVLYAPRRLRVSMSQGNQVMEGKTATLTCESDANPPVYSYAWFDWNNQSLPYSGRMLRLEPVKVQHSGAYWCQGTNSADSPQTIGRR
Method in brief: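 SPR with desialylated (SialoExo, 4 h, 37° C.) cynomolgus CD22 amine-coupled to a CM5 chip. Running buffer 10 mM HEPES, 150 mM NaCl, 0.05% Tween-20, pH 7.5, 1% DMSO, with solvent correction; 120 s dissociation. Affinities from steady-state analysis.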

[2] = target: T2, mouse Siglec-2-Fc-Avi (CD22) (Mus musculus, UniProt P35329); assay: SPR binding affinity to mouse CD22; conditions: steady-state analysis
T2 construct: made in house
T2 sequence (P35329 22-708 limits assumed): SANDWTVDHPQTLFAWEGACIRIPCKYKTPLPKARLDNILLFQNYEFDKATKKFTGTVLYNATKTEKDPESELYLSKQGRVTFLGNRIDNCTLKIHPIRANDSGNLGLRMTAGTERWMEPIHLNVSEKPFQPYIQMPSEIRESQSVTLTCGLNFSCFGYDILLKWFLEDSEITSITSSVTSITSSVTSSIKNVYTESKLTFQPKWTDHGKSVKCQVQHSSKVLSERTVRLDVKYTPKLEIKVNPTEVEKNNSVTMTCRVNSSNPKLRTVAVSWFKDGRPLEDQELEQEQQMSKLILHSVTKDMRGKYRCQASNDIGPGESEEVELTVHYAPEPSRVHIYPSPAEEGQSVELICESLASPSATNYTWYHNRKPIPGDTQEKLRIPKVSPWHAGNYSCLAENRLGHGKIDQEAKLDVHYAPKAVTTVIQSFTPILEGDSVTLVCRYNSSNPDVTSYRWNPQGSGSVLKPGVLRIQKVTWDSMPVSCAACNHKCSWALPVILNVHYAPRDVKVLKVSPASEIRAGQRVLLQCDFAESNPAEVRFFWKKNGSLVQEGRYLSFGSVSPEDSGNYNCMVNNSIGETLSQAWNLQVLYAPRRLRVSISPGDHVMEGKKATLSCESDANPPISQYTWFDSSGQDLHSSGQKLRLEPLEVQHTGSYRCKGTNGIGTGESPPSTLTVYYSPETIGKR
Method in brief: as §1

Compound | Kd [1] | Kd (cynomolgus Siglec-2/CD22) | Kd [2]
CCCNC(=O)CCOCCOCCOCCn1cc(CCOc2ccc(CO[C@]3(C(=O)O)C[C@H](O)[C@@H](NC(N)=O)[C@H]([C@H](O)[C@H](O)CNC(=O)Cc4ccc(Cl)cc4)O3)cc2)nn1 [Compound 222, (2R,4S,5R,6R)-6-((1R,2R)-3-(2-(4-chlorophenyl)acetamido)-1,2-dihydroxypropyl)-4-hydroxy-2-((4-(2-(1-(12-oxo-3,6,9-trioxa-13-azahexadecyl)-1H-1,2,3-triazol-4-yl)ethoxy)benzyl)oxy)-5-ureidotetrahydro-2H-pyran-2-carboxylic acid] | < 1 µM | < 1 µM | < 1 µM
C#CCCOc1ccc(CO[C@]2(C(=O)O)C[C@H](O)[C@@H](NC(=O)CO)[C@H]([C@H](O)[C@H](O)CNC(=O)Cc3ccc(-c4ccc(O)cc4)cc3)O2)cc1O [Compound 73, (2R,4S,5R,6R)-2-((4-(but-3-yn-1-yloxy)-3-hydroxybenzyl)oxy)-6-((1R,2R)-1,2-dihydroxy-3-(2-(4′-hydroxy-[1,1′-biphenyl]-4-yl)acetamido)propyl)-4-hydroxy-5-(2-hydroxyacetamido)tetrahydro-2H-pyran-2-carboxylic acid] | < 1 µM | < 1 µM | < 1 µM
C#CCOc1ccc(CO[C@]2(C(=O)O)C[C@H](O)[C@@H](NC(=O)CO)[C@H]([C@H](O)[C@H](O)CNC(=O)Cc3ccc(F)cc3)O2)cc1 [Compound 166, (2R,4S,5R,6R)-6-((1R,2R)-3-(2-(4-fluorophenyl)acetamido)-1,2-dihydroxypropyl)-4-hydroxy-5-(2-hydroxyacetamido)-2-((4-(prop-2-yn-1-yloxy)benzyl)oxy)tetrahydro-2H-pyran-2-carboxylic acid] | < 1 µM | 1 to 10 µM | 1 to 10 µM
C#CCOCCCCCCO[C@]1(C(=O)O)C[C@H](O)[C@@H](NC(=O)NCC2CC2)[C@H]([C@H](O)[C@H](O)CNC(=O)Cc2ccc(Cl)cc2)O1 [Compound 94, (2R,4S,5R,6R)-6-((1R,2R)-3-(2-(4-chlorophenyl)acetamido)-1,2-dihydroxypropyl)-5-(3-(cyclopropylmethyl)ureido)-4-hydroxy-2-((6-(prop-2-yn-1-yloxy)hexyl)oxy)tetrahydro-2H-pyran-2-carboxylic acid] | 1 to 10 µM | 1 to 10 µM | 1 to 10 µM
C#CCCOc1ccc(CO[C@]2(C(=O)O)C[C@H](O)[C@@H](NC(=O)CO)[C@H]([C@H](O)[C@H](O)CN)O2)cc1 [Compound 16, (2R,4S,5R,6R)-6-((1R,2R)-3-amino-1,2-dihydroxypropyl)-2-((4-(but-3-yn-1-yloxy)benzyl)oxy)-4-hydroxy-5-(2-hydroxyacetamido)tetrahydro-2H-pyran-2-carboxylic acid] | > 10 µM | > 10 µM | > 10 µM
C#CCCOc1ccc(CO[C@]2(C(=O)O)C[C@H](O)[C@@H](NC(N)=O)[C@H]([C@H](O)[C@H](O)CNC(=O)Cc3ccc(Cl)cc3)O2)cc1 [Compound 205, (2R,4S,5R,6R)-2-((4-(but-3-yn-1-yloxy)benzyl)oxy)-6-((1R,2R)-3-(2-(4-chlorophenyl)acetamido)-1,2-dihydroxypropyl)-4-hydroxy-5-ureidotetrahydro-2H-pyran-2-carboxylic acid] | < 1 µM | < 1 µM | < 1 µM

Other lines, results leading:

Kd [1] | Kd (cynomolgus Siglec-2/CD22) | Kd [2] | Compound
1 to 10 µM | > 10 µM | > 10 µM | C#CCOCCOCCO[C@]1(C(=O)O)C[C@H](O)[C@@H](NC(=O)CS)[C@H]([C@H](O)[C@H](O)CNC(=O)Cc2ccc(-c3ccc(O)cc3)cc2)O1 [Compound 69, (2R,4S,5R,6R)-6-((1R,2R)-1,2-dihydroxy-3-(2-(4′-hydroxy-[1,1′-biphenyl]-4-yl)acetamido)propyl)-4-hydroxy-5-(2-mercaptoacetamido)-2-(2-(2-(prop-2-yn-1-yloxy)ethoxy)ethoxy)tetrahydro-2H-pyran-2-carboxylic acid]
1 to 10 µM | < 1 µM | 1 to 10 µM | C#CCOCCOCCOCCOCCC(=O)NCCOCCOCCO[C@]1(C(=O)O)C[C@H](O)[C@@H](NC(=O)CO)[C@H]([C@H](O)[C@H](O)CNC(=O)Cc2ccc(Cl)cc2)O1 [Compound 111, (2R,4S,5R,6R)-6-((1R,2R)-3-(2-(4-chlorophenyl)acetamido)-1,2-dihydroxypropyl)-4-hydroxy-5-(2-hydroxyacetamido)-2-((10-oxo-3,6,13,16,19,22-hexaoxa-9-azapentacos-24-yn-1-yl)oxy)tetrahydro-2H-pyran-2-carboxylic acid]
< 1 µM | < 1 µM | 1 to 10 µM | C#CCOCCOCCNc1c(NCCCCCCO[C@]2(C(=O)O)C[C@H](O)[C@@H](NC(=O)CO)[C@H]([C@H](O)[C@H](O)CNC(=O)c3cccc(Cl)c3)O2)c(=O)c1=O [Compound 227, (2R,4S,5R,6R)-6-((1R,2R)-3-(3-chlorobenzamido)-1,2-dihydroxypropyl)-2-((6-((3,4-dioxo-2-((2-(2-(prop-2-yn-1-yloxy)ethoxy)ethyl)amino)cyclobut-1-en-1-yl)amino)hexyl)oxy)-4-hydroxy-5-(2-hydroxyacetamido)tetrahydro-2H-pyran-2-carboxylic acid]
1 to 10 µM | > 10 µM | 1 to 10 µM | C#CCOCCOCCO[C@]1(C(=O)O)C[C@H](O)[C@@H](NC(=O)CO)[C@H]([C@H](O)[C@H](O)CNC(=O)Cc2ccccc2O)O1 [Compound 151, (2R,4S,5R,6R)-6-((1R,2R)-1,2-dihydroxy-3-(2-(2-hydroxyphenyl)acetamido)propyl)-4-hydroxy-5-(2-hydroxyacetamido)-2-(2-(2-(prop-2-yn-1-yloxy)ethoxy)ethoxy)tetrahydro-2H-pyran-2-carboxylic acid]
> 10 µM | > 10 µM | 1 to 10 µM | C#CCOCCOCCO[C@]1(C(=O)O)C[C@H](O)[C@@H](NC(=O)CO)[C@H]([C@H](O)[C@H](O)CNC(=O)C[C@H]2CC[C@H](O)CC2)O1 [Compound 14, (2R,4S,5R,6R)-6-((1R,2R)-1,2-dihydroxy-3-(2-((1r,4R)-4-hydroxycyclohexyl)acetamido)propyl)-4-hydroxy-5-(2-hydroxyacetamido)-2-(2-(2-(prop-2-yn-1-yloxy)ethoxy)ethoxy)tetrahydro-2H-pyran-2-carboxylic acid]
1 to 10 µM | > 10 µM | > 10 µM | C#CCOCCOCCO[C@]1(C(=O)O)C[C@H](O)[C@@H](NC(=O)CO)[C@H]([C@H](O)[C@H](O)CNC(=O)Cc2ccc3c(c2)CC(=O)N3)O1 [Compound 11, (2R,4S,5R,6R)-6-((1R,2R)-1,2-dihydroxy-3-(2-(2-oxoindolin-5-yl)acetamido)propyl)-4-hydroxy-5-(2-hydroxyacetamido)-2-(2-(2-(prop-2-yn-1-yloxy)ethoxy)ethoxy)tetrahydro-2H-pyran-2-carboxylic acid]
1 to 10 µM | 1 to 10 µM | > 10 µM | C#CCOCCOCCO[C@]1(C(=O)O)C[C@H](O)[C@@H](NC(=O)CO)[C@H]([C@H](O)[C@H](O)CNC(=O)Cn2cc(-c3ccccc3)nn2)O1 [Compound 177, (2R,4S,5R,6R)-6-((1R,2R)-1,2-dihydroxy-3-(2-(4-phenyl-1H-1,2,3-triazol-1-yl)acetamido)propyl)-4-hydroxy-5-(2-hydroxyacetamido)-2-(2-(2-(prop-2-yn-1-yloxy)ethoxy)ethoxy)tetrahydro-2H-pyran-2-carboxylic acid]
